Assay results as given in publication PMC3630508 (Molecular immunology, 2012).

Tests used:
complement activation = assay type: in vivo; conditions: 20 mg E23A intra-peritoneal, male Wistar rats, one hour
[1] = aqueous solubility; qualitative, data not shown

For CC[C@H](C)[C@H](NC(=O)[C@H](C)NC(=O)[C@@H]1CCCN1)C(=O)N[C@@H](CS)C(=O)N[C@@H](CCC(N)=O)C(=O)N[C@@H](CCCNC(=N)N)C(=O)N[C@@H](C)C(=O)N[C@H](C(=O)N[C@@H](C)C(=O)N[C@H](C(=O)N[C@@H](CC(C)C)C(=O)NCC(=O)N[C@H](C(=O)N[C@H](C(=O)NCC(=O)N[C@@H](CO)C(=O)N[C@@H](CC(N)=O)C(=O)N[C@H](C(=O)N[C@@H](CO)C(=O)NCC(=O)N[C@H](C(=O)N[C@H](C(=O)N[C@@H](CCC(=O)O)C(=O)N[C@H](C(=O)N[C@@H](C)C(=O)N[C@@H](C)C(=O)N[C@@H](CS)C(=O)N[C@H](C(=O)N[C@@H](CC(C)C)C(=O)N[C@@H](CC(C)C)C(=O)O)[C@@H](C)CC)[C@@H](C)CC)[C@@H](C)O)[C@@H](C)O)[C@@H](C)O)C(C)C)[C@@H](C)O)[C@@H](C)O)[C@@H](C)O [E23A], the “adverse effects / overt toxicity upon necropsy” value (complement activation) was “no overt adverse effects” and the “solubility” value [1] was “relative insolubility”.

In the case of CC[C@H](C)[C@H](N)C(=O)N[C@@H](C)C(=O)N[C@@H](CC(C)C)C(=O)N[C@H](C(=O)N[C@@H](CC(C)C)C(=O)N[C@@H](CCC(=O)O)C(=O)N1CCC[C@H]1C(=O)N[C@H](C(=O)N[C@@H](CS)C(=O)N[C@@H](CS)C(=O)N[C@@H](CCC(N)=O)C(=O)N[C@@H](CCC(=O)O)C(=O)N[C@@H](CCCNC(=N)N)C(=O)N[C@@H](C)C(=O)N[C@@H](C)C(=O)O)[C@@H](C)CC)[C@@H](C)CC [PA], the “solubility” value [1] is reported as “aqueous solubility of the compound was significantly improved”.
